Source: patent publication EP1276895B1, “METHOD FOR THE IDENTIFICATION OF ACTIVE SITE PROTEASE INACTIVATORS” (THE UNIVERSITY OF GEORGIA RESEARCH FOUNDATION, INC., priority 2000, dated 2001)
Residues, ends and D or L forms follow the SMILES beside them. *: point of attachment. AFC = O=c1cc(C(F)(F)F)c2ccc(N*)cc2o1; MeOSuc = COC(=O)CCC(=O)*; Cbz = O=C(OCc1ccccc1)*

Key:
[1] = system: purified Taenia solium cysteine protease; assay: Substrate cleavage screen of AFC-linked synthetic substrates (Step II), purified protease; assay type: biochemical; conditions: 1 ug purified protease, 1 ug substrate, Citrate pH 4.9 with 0.01 M cysteine, 18 h, 37 °C
Method: In this step, the most efficacious substrate for detection of the cysteine protease (high Kcat substrate) was determined in vitro along with those substrates which were not well cleaved (low kcat substrates). From this point forth, the following conditions refer to all assays: "assay buffer" refers to 0.4 M Citrate, pH 4.9 (the pH optima of the protease). Incubation time was 18 hours at 37°C. These conditions were determined by our preliminary data to be best for kinetic evaluation of the protease. […] The experiments were conducted in […] Borosilicate mini-culture tubes (Fisher Scientific), and a fluorometer (Turner) was employed for detection of AFC cleavage.
Approximately 1 ug (or a proteolytically detectable amount) of the purified target cysteine protease was incubated individually, with 1 ug of each of the available substrates in 500 uL of assay buffer. During this setup, the substrate was pre-incubated in the assay buffer for a short period of time (20 minutes) in order to reach an equilibrated status before the addition of the protease. Cleavage assessments were based upon the property of the protease to cleave synthetic peptide substrates linked at the C-terminus to 7-Amino-4-Trifluoromethyl Coumarin (AFC) as previously described. AFC linked tripeptides, dipeptides, and monopeptides, (with a variety of permutations at P3-P1) were available from Enzyme Systems Products (Livermore, CA), and were used as the source of the subset. Following incubation of enzyme preparations overnight (18 h, 37 °C) with peptide in assay buffer (Citrate, pH 4.9, supplemented with 0.01 M cysteine), free AFC concentrations were measured fluorometrically (excitation 405 nm, emission 505 nm). The proteolytic cleavage released the AFC group, which was measurable as a free molecule by a standard fluorometer and converted into molar quantities, based upon a previously established standard curve. The simplicity of AFC detection by the fluorometer was a key factor which quickened and simplified the procedures.
In the assay, 1 ug of the purified Taenia cysteine protease was added to a saturating amount of Z-Phe-Arg-AFC (4X10^-5 M) in assay buffer. The experiment was conducted in triplicate and repeated at least 5 times until we were certain that variability in AFC cleavage was not statistically significant.
Vmax was calculated for the cleavage of substrates by the purified target protease and Vmax was calculated for substrates cleaved by the crude mix protease using conventional kinetic modeling calculations already described in the art.

[2] = system: purified Taenia solium cysteine protease; assay: Competitor assay of low Vmax substrates (vehicles) against high Vmax substrate cocktails (Step III), purified protease; assay type: biochemical; conditions: purified protease; for inhibition in the presence of the 1.4% cocktail: 1.4% cocktail = Z-FR-AFC 1X10^-6M; for inhibition with the final cocktail (7.4%): 7.4% cocktail = Z-FR-AFC + Z-FAR-AFC + Z-AAK-AFC + AP-AFC + Z-VLR-AFC, 1X10^-6 M each, vehicle 8X10^-6 M
Method: (We employed "Vmax" here although Kcat could also be used). Due to the lower number of substrates, a percentage was not chosen for the "BOTTOM %" " substrates. Alternately, all substrates which were not cleaved as determined by a value of 10 uM/hr or less, were chosen to be tested in this step for competitive ability. From this point forth, the term "vehicle" will represent low Vmax substrates that were capable of inhibiting cleavage of the percent cocktails. In this instance, we tested for "vehicles" which inhibited cleavage of the TOP 1.4% cocktail (they were delivered into the active site). Based upon our results from Step II, the top 1.4% cocktail was composed of Z-Phe-Arg-AFC, the highest cleaved substrate.
(§1) The experiment began with a competitor test between the noncleaved low Vmax substrates and the highest Vmax substrate, Z-Phe-Arg-AFC. Concentrations were varied between the low Vmax substrate and Z-Phe-Arg-AFC, as described above under "refinement of assay" until a relative inhibition profile was obtained.
The mixture was allowed to equilibrate for a period of 30 minutes. Finally, active purified enzyme was added to the tubes at a concentration which was always 50 times less than the concentration of the high and low Vmax substrates, in order to insure saturation conditions. This concentration varied from purification to purification and the amount added depended upon the yield and specific activity of the purified protease.
Positive controls were set up similarly as described for test controls, except that solvent was added in substitution for the low Vmax substrate (in a volume equal to the low Vmax volume addition). All of the substrates could be dissolved in dimethylsulfoxide (DMSO), and therefore, this was the solvent of choice. Negative controls were set up by adding the low Vmax and the high Vmax substrate in a tube without the protease. All potential non-proteolytic induced liberation of AFC was therefore controlled for in this tube (a feature which also insured stability of the AFC substrates, since these substrates will freely liberate AFC when unstable). A tube set will be established for this negative control.
All controls were set up in triplicate, and experiments repeated a minimum of five times. The assays were incubated at 37°C, for 18 hours overnight.
(§2) Percent inhibition was calculated as: %Inhibition =; ((AFC positive for"Y"-AFC negative for"Y")-(AFC test-AFC negative for"Y")X100)/(AFC positive for "Y"-AFC negative for "Y") [formula]
A 2.9% cocktail of the high Vmax substrates was made. This was composed of Z-FR-AFC and the second most cleaved substrate, Z-FAR-AFC. The vehicles promoted from the initial screenings above were again tested for competitive inhibition ability with the new cocktails. Their concentrations were set identically to those which were "fixed" in the previous protocols. In other words, 8X10^-6M of the vehicle was added to the culture tube with 1X10^-6 M of Z-FR-AFC and 1X10^-6 M of Z-FAR-AFC. Active protease was added last at a concentration that was 50 times less than the concentration of the high Vmax substrate (to ensure saturating conditions).
In similar experimental fashion, a 4.4%, 5.9%, and 7.4% cocktail were tested with each of the promising vehicles. Each percentage point represented an increase by one substrate. Each of the individual components in the cocktail were added at 1X10^-6 M each, to 8X10^-6 M of the vehicle. The composition of the cocktails was as follows: 4.4% cocktail: Z-FR-AFC, Z-FAR-AFC, and Z-AAK-AFC (third highest cleaved substrate); 5.9% cocktail: Z-FR-AFC, Z-FAR-AFC, Z-AAK-AFC, and AP-AFC (fourth highest cleaved substrate); 7.4% cocktail: […], Z-FAR-AFC, Z-AAK-AFC, AP-AFC, and Z-VLR-AFC. We stopped at this number of substrates in the cocktail, since confidence was obtained that inhibitory potential of vehicles could be "diluted out."
Finally, a manageable set of candidate vehicles was determined. […]

[3] = system: purified Taenia solium cysteine protease; assay: Inhibition assay of protease inactivators against the high Vmax cocktail, EC100 and Ki ranking (Step VII B); assay type: biochemical
From the text: Once the protease inactivators were synthesized in the organic laboratory, they were to be tested for the lowest efficacious concentrations at which they induced 100% inhibition of the target protease (EC100). The top percent cocktail that was employed in the final vehicle selection step of Step III was employed as the source of competition for the inhibitors. In this case, this was the […] which was comprised of Z-FR-AFC, Z-FAR-AFC, Z-AP-AFC, Z-AAK-AFC, and Z-VLR-AFC. The final result would be a ranking of transition state candidate protease inactivators with a high ranking directly correlating to a low EC100 value. The following steps describe the assay:
Step A: Initial Screening. To set up the test control, each protease inactivator was first incubated with the […] (which provided the final differentiation of vehicles in Step III). To begin with, the protease inactivator was incubated at a concentration of 3 X 10^-9M in 500 ul of assay buffer ([…], pH 4.9 supplemented with 10mM L-cysteine). This concentration was determined, after a series of inhibitor dilutions identified, to be the best inhibitor concentration at which a differentiation in inhibitor potential could be noted. Next, a concentration equal to 4 X 10^-5M for each of the individual cocktail components, was added to the mix. The components were allowed to equilibrate for a period of 30 minutes. Finally, active purified enzyme was added to the tubes at a concentration which was always at least 50 times less than the concentration of the lowest concentration in the mix (to provide saturating conditions.) This concentration varied from purification to purification and the amount added depended upon the yield and specific activity of the purified protease.
Positive controls were set up similarly as described for test controls, except that solvent was added in substitution for the protease inactivator (in a volume equal to the […] volume addition). All of the protease inactivators could be dissolved in dimethylsulfoxide (DMSO), and therefore, this was the solvent of choice. Negative controls were set up by adding the protease inactivator and the cocktail substrates in a tube, without the protease. All potential non-proteolytic induced liberation of AFC was therefore controlled for in this tube (a feature which also insured stability of the AFC substrates, since these substrates will freely liberate AFC when unstable).
All controls were set up in triplicate, and experiments repeated a minimum of five times. The assays were incubated at 37°C, overnight. Percent inhibition was calculated as: % Inhibition = ((AFC positive for ʺSIʺ-AFC negative for ʺSIʺ)-(AFC test-AFC negative for ʺSIʺ))/(AFC positive for ʺSIʺ-AFC negative for ʺSIʺ) × 100 [formula]
Because of this, a dilution study was required in order to determine a viable ranking. Thus, the concentration of each of the protease inactivators was lowered with a dose response setup until the most efficacious concentration for 100% inhibition (EC100) could be determined. […] The final result of the assay was a ranked candidate list of protease inactivators. A lower EC100 was attributable to a higher ranking and vice-versa.
In order to determine Ki, all of the high Vmax cocktail substrates were employed for Ki determination (since Ki of the inhibitor for the enzyme is the same regardless of the substrate). To insure the highest accuracy, Ki was to be determined upon a minimum of at least three of the high Kcat substrates. Nonlinear fitting and the Dixon plot were both employed to determine Ki of the top ranked protease inactivators. A further plot was constructed using either Eadie Hofstee as well as Hanes to determine the mode of inhibition. These methods were used in order to determine the type of inhibition.

Taenia solium crude mix = assay: Competitor assay of vehicles against high Vmax substrate cocktails (Step III), crude mix; assay type: biochemical
Method: Step III for a crude mix proceeds it would for a purified protease, except that Vm is used instead of kcat.
as §1, §2
One of the most intriguing findings in this experiment was that a highly similar inhibition pattern for the competitor assay was noted when the crude mix was employed as the source of the target protease. Although there were some variations in the effects of inhibitor dilution, the most highly ranked vehicles remained inhibitory consistently in comparison to the profile with the target protease. The relative profile and composition of the top tiers of vehicles was identical. Z-LLL-AFC, Z-LLY-AFC, Mu-LY-AFC, Boc-VPR-AFC, Z-SY-AFC, Z-RR-AFC, Z-FLF-AFC, Z-LGR-AFC consistently presented as the top eight vehicles (Fig. 5b), respectively, based upon their V values (Table 2). […] It was notable that the three vehicles had very similar V values. […] As was mentioned, this vehicle along with Z-LLL-AFC and Z-LLY-AFC, were consistently the most inhibitory vehicles. The V values of the most inhibitory vehicle series are shown below in Table 2. Again, a clear break between the first and second tier vehicles could be noted with the V value. Table 2. Vehicles and V value rankings.

Taenia crassiceps cysts = assay: Short-term prophylactic protection of BALB/c mice from cysticercosis infection; assay type: in vivo; conditions: pre-injected two days, 10 T. crassiceps cysts/mouse, dosed daily for four weeks, cysts counted after one month, versus untreated controls

## N[C@@H](CCC(=O)O)C(=O)N[C@@H](Cc1ccc(O)cc1)C(=O)Nc1ccc2c(C(F)(F)F)cc(=O)oc2c1 [EY-AFC, reference compound] (H-Glu-Tyr-{AFC})
[1]
  cleavage of AFC-linked substrate (Vmax): not cleaved

## COC(=O)CCC(=O)N[C@@H](Cc1ccccc1)C(=O)N[C@@H](CC(C)C)C(=O)N[C@@H](Cc1ccccc1)C(=O)Nc1ccc2c(C(F)(F)F)cc(=O)oc2c1 [MeoSuc-FLF-AFC, reference compound] (MeOSuc-Phe-Leu-Phe-{AFC})
[1]
  cleavage of AFC-linked substrate (Vmax): not cleaved

## CC(C)C[C@H](NC(=O)OCc1ccccc1)C(=O)NCC(=O)N[C@@H](CCCNC(=N)N)C(=O)Nc1ccc2c(C(F)(F)F)cc(=O)oc2c1 [Z-LGR-AFC, Z-Leu-Gly-Arg-AFC] (Cbz-Leu-Gly-Arg-{AFC})
[2]; vehicle 8X10^-6M
  inhibition in the presence of the 1.4% cocktail: greater than 20%
[2]
  inhibition with the final cocktail (7.4%): less than 20%
[1]
  cleavage of AFC-linked substrate (Vmax): noncleavable

## CC(C)C[C@@H](/C=C/S(C)(=O)=O)NC(=O)[C@H](CC(C)C)NC(=O)[C@H](CC(C)C)NC(=O)OCc1ccccc1 [Z-LLL-VS, Z-Leu-Leu-Leu-vinylsulfone]
[3]; dilution study, nanomolar levels
  ranking of protease inactivators by EC100: top inhibitors

## CC(C)C[C@H](NC(=O)OCc1ccccc1)C(=O)N[C@@H](CCCNC(=N)N)C(=O)N[C@@H](CCCNC(=N)N)C(=O)Nc1ccc2c(C(F)(F)F)cc(=O)oc2c1 [Z-LRR-AFC] (Cbz-Leu-Arg-Arg-{AFC})
[2]; vehicle 8X10^-6M
  inhibition in the presence of the 1.4% cocktail: greater than 20%

## N=C(N)NCCC[C@H](NC(=O)OCc1ccccc1)C(=O)N[C@@H](CCCNC(=N)N)C(=O)Nc1ccc2c(C(F)(F)F)cc(=O)oc2c1 [Z-RR-AFC] (Cbz-Arg-Arg-{AFC})
[2]
  inhibition with the final cocktail (7.4%): less than 20%
[2]; V = P * M, P = inhibition with first (1.4%) cocktail, M = inhibition with last (7.4%) cocktail, vehicle 8X10^-6M, each cocktail substrate 1X10^-6 M
  V Value: 0.09
Taenia solium crude mix
  Tier: 2 (The second tier was composed of those vehicles, which produced inhibition between 20-50% inhibition when in the presence of the 1.4% cocktail)
Taenia solium crude mix; V = P * M
  V Value: 0.09

## Leu-Phe-Ketoamide-Pyridyl [K-Pyr, reference compound]
[3]; in vitro, concentration not stated in Table 4
  % Inhibition of T. solium CP in vitro: 80%
Taenia crassiceps cysts
  % Prophylactic protection of BALB/c mice: 40%
